Measured values reported in patent publication US6245736A, “Use of peptidic bradykinin antagonists for the treatment and prevention of Alzheimer's disease” (Aventis Pharma Deutschland GmbH, priority 1996, dated 2001).
Where no end group is shown, it is not given here.

How the values were obtained:
Format in all cases: cell-based
[1] = tested on: bovine aortic endothelial cells; assay: cGMP production stimulated by the Alzheimer protein β/A4 in endothelial cell cultures (BAECs), radioimmunoassay
Source text: (§1) Action of the compounds of the formula (I) on cGMP production stimulated by the Alzheimer protein β/A4 in endothelial cell cultures
(§2) Bovine aortic endothelial cell cultures (BAECs=bovine aortic endothelial cells), […] coronary rat endothelial cell cultures (RMCECs=rat microvascular coronary endothelial cells) and human umbilical vein endothelial cell cultures (HUVECs=human umbilical vein endothelial cells)
(§3) Determination of the effect of bradykinin antagonists of the formula (I) on the production of cGMP stimulated by administration of 0.1 and 1 μmol/l of the Alzheimer protein β/A4 in endothelial cell cultures of various species and organs.
(§4) In endothelial cells, bradykinin leads to an increase in the production of cGMP, which is determined by means of a radioimmunoassay. Increase in the formation of cGMP by bradykinin is an indicator of a release of NO (nitrogen monoxide) from endothelial cells.
(§5) Stimulation of cGMP production by βA(1-40) and inhibitory effect of the bradykinin antagonist HOE 140 (10^-7 mol/l) in 3 different types of endothelial cells: […]

[2] = tested on: rat microvascular coronary endothelial cells; assay: cGMP production stimulated by the Alzheimer protein β/A4 in endothelial cell cultures (RMCECs), radioimmunoassay
Source text: as §1, §2, §3, §4, §5

[3] = tested on: human umbilical vein endothelial cells; assay: cGMP production stimulated by the Alzheimer protein β/A4 in endothelial cell cultures (HUVECs), radioimmunoassay
Source text: as §1, §2, §3, §4, §5

[4] = simultaneous incubation with HOE 140 0.1 μmol/l
[5] = stimulated with BK 10^-8 mol/l + HOE 140 (10^-7 mol/l)
[6] = stimulated with βA (1-40) 10^-6 mol/l + HOE 140 (10^-7 mol/l)
[7] = stimulated with βA (1-40) 10^-7 mol/l + HOE 140 (10^-7 mol/l)

With `N=C(N)NCCC[C@@H](N)C(=O)N[C@@H](CCCNC(=N)N)C(=O)N1CCC[C@H]1C(=O)N1C[C@H](O)C[C@H]1C(=O)NCC(=O)N[C@@H](Cc1cccs1)C(=O)N[C@@H](CO)C(=O)N1Cc2ccccc2C[C@@H]1C(=O)N1[C@H](C(=O)N[C@@H](CCCNC(=N)N)C(=O)O)C[C@@H]2CCCC[C@@H]21` [HOE 140, H-D-Arg-Arg-Pro-Hyp-Gly-Thi-Ser-D-Tic-Oic-Arg-OH] as the molecule, how does the “effect on the stimulation of the production of cGMP induced by the β/A4 protein” value (shortened to “effect on the stimulation”) [1, 4] read?
The value was “prevents the stimulation of the production of cGMP”.

What about the cGMP production [1, 5] of the same molecule?
The cGMP production was 2.2 ± 0.2 pmol/mg of protein.

What about the cGMP production [1, 6] of the same molecule?
The cGMP production was 2.2 ± 0.2 pmol/mg of protein.

And the cGMP production [1, 7]?
Its cGMP production is 2.2 ± 0.28 pmol/mg of protein.

What about the “effect on the stimulation” value [2, 4] of the same molecule?
Its value is “prevents the stimulation of the production of cGMP”.

What about the cGMP production [2, 5] of the same molecule?
Its cGMP production is 0.22 ± 0.02 pmol/mg of protein.

What about the cGMP production [2, 6] of the same molecule?
Its cGMP production is 0.32 ± 0.05 pmol/mg of protein.

What about the cGMP production [2, 7] of the same molecule?
The cGMP production was 0.34 ± 0.02 pmol/mg of protein.

And the “effect on the stimulation” value [3, 4]?
Its value is “prevents the stimulation of the production of cGMP”.

What about the cGMP production [3, 5] of the same molecule?
Its cGMP production is 3.45 ± 0.45 pmol/mg of protein.

What about the cGMP production [3, 6] of the same molecule?
Its cGMP production is 5.3 pmol/mg of protein.

And the cGMP production [3, 7]?
The cGMP production was 4.0 pmol/mg of protein.

Which cGMP production ([1]; βA (1-40) 10^-6 mol/l alone) does the source give for “βA (1-40): Alzheimer protein amyloid (β/A4), used to stimulate cGMP production [reference compound]” here?
The cGMP production was 4.6 ± 0.13 pmol/mg of protein.

And the cGMP production ([1]; βA (1-40) 10^-7 mol/l alone)?
Its cGMP production is 5.9 ± 0.23 pmol/mg of protein.

And the cGMP production ([2]; βA (1-40) 10^-6 mol/l alone)?
The cGMP production was 0.74 ± 0.09 pmol/mg of protein.

And the cGMP production ([2]; βA (1-40) 10^-7 mol/l alone)?
Its cGMP production is 0.59 ± 0.07 pmol/mg of protein.

And the cGMP production ([3]; βA (1-40) 10^-6 mol/l alone)?
Its cGMP production is 15.3 ± 1.9 pmol/mg of protein.

What about the cGMP production ([3]; βA (1-40) 10^-7 mol/l alone) of the same molecule?
Its cGMP production is 14.07 ± 1.6 pmol/mg of protein.

How did the cGMP production ([1]; BK 10^-8 mol/l alone) turn out when RPPGFSPFR [BK, bradykinin] was run?
The cGMP production was 8.8 ± 0.34 pmol/mg of protein.

And the cGMP production ([2]; BK 10^-8 mol/l alone)?
Its cGMP production is 1.13 ± 0.2 pmol/mg of protein.

What about the cGMP production ([3]; BK 10^-8 mol/l alone) of the same molecule?
The cGMP production was 11.46 ± 2 pmol/mg of protein.
